From ChEMBL document CHEMBL1201862, “PubChem BioAssay data set” (2004) come the findings set out here.

Holding throughout (assay): NCI-60 cell line screen, 48 h
Test [1] relates to MDA-N.
Test [2] concerns SNB-19.
Test [3] relates to DU-145.
Test [4] relates to MDA-MB-231.
In test [5] the test system is SK-MEL-28.
Test [6] deals with NCI-H522.
Test [7] concerns OVCAR-8.
The subject of test [8] is HCT-15.
Test [9] concerns HOP-62.
In test [10] the test system is HCT-116.
The subject of test [11] is NCI/ADR-RES.
Test [12] deals with PC-3.
The subject of test [13] is K562.
Test [14] concerns SR.
Test [15] concerns NCI-H23.
Test [16] concerns SF-539.
Test [17] concerns HOP-92.
In test [18] the test system is KM12.
Test [19] relates to HT-29.
For test [20], the system named is T47D.

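Following 48 hours of exposure in 96-well plates, responses at five concentrations were used to interpolate endpoints linearly. Abbreviation: GI50, concentration required for 50% inhibition of growth.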 Calls of active or inactive are those of the source. Rule as the data show it: active = GI50 up to about 1.1 µM and inactive = higher. A value given as a limit tells only on which side of the number the result lay.

As for `Oc1c(Cl)ccc2cccnc12`, the GI50 in [1] is 16.6 µM (inactive); in test [2], 13.3 µM (inactive); in test [3], 9.73 µM (inactive); in test [4], 3.76 µM (inactive); in [5] it was 22.8 µM (inactive); in [6] it was 1.63 µM (inactive). Moreover, the GI50 was 2.63 µM (inactive) in test [7]; 0.927 µM in [8]; 3.75 µM (inactive) in test [9]; 1.79 µM (inactive) in test [10]; 0.432 µM (active) in test [11]; 4.71 µM (inactive) in test [12]. Besides, the GI50 in test [13] was 1.32 µM (inactive); in test [14] it was 1.88 µM (inactive); in test [15], 5.06 µM (inactive); in [16], 3.4 µM (inactive); in [17], < 0.01 µM (active); in [18], 4.88 µM (inactive). Also, the values for the GI50 in [19] and in [20] were 18.4 µM (inactive) and 1.2 µM (inactive), respectively.

For `Cc1coc2c1CC1OC1(C)CCC1OC1(C)C2` (stereo not drawn), the GI50 in test [1], in [2], in test [3], in test [4], in [5] and in test [6] was > 100 µM (inactive) each time. Moreover, the GI50 in test [7] is > 100 µM (inactive); in test [8], above 100 µM; in test [9] it was > 100 µM (inactive); in [10] it was > 100 µM (inactive); in [11], > 100 µM (inactive); in [12], > 100 µM (inactive). The GI50 in [13], in test [14], in [15], in test [16], in [17] and in test [18] was > 100 µM (inactive) in each case. Moreover, the GI50 in test [20] was > 100 µM (inactive).

Consider `COc1cc(/C=N/N=C2NCCCN2)ccc1O`, for which the GI50 in test [1], in [2], in test [3], in test [4], in test [5] and in [6] was > 100 µM (inactive) throughout. Also, the GI50 in test [7] was > 100 µM (inactive); in test [8], above 100 µM; in [9], > 100 µM (inactive); in test [10], > 100 µM (inactive); in test [11], > 100 µM (inactive); in [12] it was > 100 µM (inactive). Moreover, the GI50 in test [13], in test [14], in [15], in [16], in [17] and in test [18] was > 100 µM (inactive) throughout. The GI50 in [19] and in [20] was > 100 µM (inactive) in each case.

Turning to `Oc1ncc(N(CCCl)CCCl)c(O)n1` [URACIL MUSTARD], the GI50 in [1] is 60.4 µM (inactive); in test [2], 42.1 µM (inactive); in test [3], 22.3 µM (inactive); in test [4], 81.3 µM (inactive); in [5] it was 67.8 µM (inactive); in test [6], 14.3 µM (inactive). In addition, the GI50 in test [7] was 42.2 µM (inactive); in test [8], 50.2 µM; in test [9] it was 15 µM (inactive); in test [10], 49 µM (inactive); in test [11], 23.7 µM (inactive); in [12] it was 57.3 µM (inactive). Further, the GI50 is 42.5 µM (inactive) in [13]; 1.58 µM (inactive) in test [14]; 15 µM (inactive) in [15]; 11.7 µM (inactive) in [16]; 23.8 µM (inactive) in test [17]; 89.3 µM (inactive) in test [18]. In addition, the GI50 in [19] is 69.8 µM (inactive); in test [20], 12.9 µM (inactive).

On to `CCO/N=C(/CC)c1ccc(Br)s1`, for which the GI50 in test [1], in test [2], in test [3], in test [4], in test [5] and in test [6] was > 100 µM (inactive) in each case. Moreover, the GI50 in [7] was > 100 µM (inactive); in [8], above 100 µM; in [9], > 100 µM (inactive); in test [10], > 100 µM (inactive); in test [11], > 100 µM (inactive); in test [12] it was > 100 µM (inactive). Also, the GI50 in test [13] was > 100 µM (inactive); in test [14], 52.2 µM (inactive); in test [15] it was > 100 µM (inactive); in test [16], > 100 µM (inactive); in test [17] it was > 100 µM (inactive); in test [18], > 100 µM (inactive). For the same compound, the GI50 in test [19] and in test [20] was > 100 µM (inactive) in each case.

`CN(C)CCNC(=O)c1cc(-c2nccn2C)nc2ccccc12`: the GI50 in test [1], in [2], in [3], in test [4], in test [6] and in test [7] was > 100 µM (inactive) each time. Also, the GI50 was 66.1 µM in test [8]; 50.8 µM (inactive) in [9]; > 100 µM (inactive) in test [10]; > 100 µM (inactive) in test [11]; > 100 µM (inactive) in test [12]; > 100 µM (inactive) in test [13]. The GI50 in [14] was > 100 µM (inactive); in test [15], > 100 µM (inactive); in [16], > 100 µM (inactive); in test [17], 64.7 µM (inactive); in test [18] it was > 100 µM (inactive); in test [19] it was > 100 µM (inactive). Besides, the GI50 in test [20] was > 100 µM (inactive).

For the compound `Nc1nc(Cl)cc(NCC2(O)CCCC2)n1`, the GI50 in test [1], in test [3], in test [4], in test [5], in test [6] and in test [7] was > 100 µM (inactive) in each case. Further, the GI50 in [8] was above 100 µM; in [9], > 100 µM (inactive); in test [10] it was > 100 µM (inactive); in [11], > 100 µM (inactive); in test [12], > 100 µM (inactive); in test [13], > 100 µM (inactive). The GI50 in [14], in [15], in [16], in test [17], in [18] and in test [19] was > 100 µM (inactive) throughout. Also, in test [20], the GI50 is > 100 µM (inactive).

Take `CC1(C)N/C(=C\[N+](=O)[O-])C(C)(C)N1O`: the GI50 in [1], in test [2], in test [3], in test [4], in test [5] and in test [6] was > 10 µM (inactive) each time. Further, the GI50 in test [7] was > 10 µM (inactive); in test [8], above 10 µM; in [9], > 10 µM (inactive); in test [10] it was > 10 µM (inactive); in test [11], > 10 µM (inactive); in [12], > 10 µM (inactive). For the same compound, the GI50 in test [14], in [15], in [16], in [17], in [18] and in [19] was > 10 µM (inactive) throughout. Further, the GI50 in test [20] is > 10 µM (inactive).

Take `C#CCn1c2c(c3ccccc3c1=O)C(=O)c1ccccc1-2`: the GI50 in test [1] was 37.7 µM (inactive); in [3], 11.7 µM (inactive); in test [4] it was 15.2 µM (inactive); in [5], 26.6 µM (inactive); in test [6] it was 10.7 µM (inactive); in test [7], 19.6 µM (inactive). The GI50 in test [8] was 22.2 µM; in test [9] it was 11.9 µM (inactive); in [10], 19.6 µM (inactive); in test [11] it was 21.5 µM (inactive); in test [12] it was 11.7 µM (inactive); in test [13], 19 µM (inactive). Moreover, the GI50 in test [14] was 4.49 µM (inactive); in [15], 11.4 µM (inactive); in test [16], 11.6 µM (inactive); in [17] it was 29.9 µM (inactive); in [18], 10.1 µM (inactive); in [19], 10.7 µM (inactive). Also, in [20], the GI50 is 15.8 µM (inactive).

Take `O=C1/C(=C/c2ccc(OC(=O)c3ccccc3)cc2)CCC/C1=C\c1ccc(OC(=O)c2ccccc2)cc1`: the GI50 in test [1], in [2], in test [3], in test [4], in test [5] and in test [6] was > 100 µM (inactive) throughout. In addition, the GI50 was > 100 µM (inactive) in [7]; above 100 µM in [8]; > 100 µM (inactive) in test [9]; > 100 µM (inactive) in [10]; > 100 µM (inactive) in test [11]; > 100 µM (inactive) in [12]. For the same compound, the GI50 in test [14], in [15], in test [16], in [17], in [18] and in test [19] was > 100 µM (inactive) each time. Moreover, the GI50 in test [20] is > 100 µM (inactive).

As for `O=C1C(Cl)C(c2cccc(Br)c2)N1c1c(O)c(Cl)cc(Br)c1Cl` (stereo not drawn), the GI50 was 18.5 µM (inactive) in test [1]; 1.38 µM (inactive) in [2]; 14.9 µM (inactive) in [3]; 17 µM (inactive) in [4]; 14.1 µM (inactive) in test [6]; 30.3 µM (inactive) in test [7]. Besides, the GI50 in test [8] was 2.32 µM; in test [9], 13.8 µM (inactive); in [10], 14.5 µM (inactive); in test [11] it was 23.8 µM (inactive); in [12], 18 µM (inactive); in test [13], 15.9 µM (inactive). Moreover, the GI50 is 20.4 µM (inactive) in test [14]; 16.6 µM (inactive) in test [15]; 15.6 µM (inactive) in test [16]; 6.93 µM (inactive) in [17]; 16.7 µM (inactive) in test [18]; 5.81 µM (inactive) in test [19]. The GI50 in test [20] is 15.2 µM (inactive).
